In one assay the test system is HT-29. Put plainly: Cytotoxicity against human HT-29 cells by MTT assay. The format is functional, cell-based. Background: Formazan colour is commonly taken as a measure of viable cells.
A further assay deals with HepG2. The assay can be described thus: Cytotoxicity against human HepG2 cells by MTT assay. Type of assay: functional, cell-based.
Another assay relates to A549. Put plainly: Cytotoxicity against human A549 cells by MTT assay. Type of assay: functional, cell-based.
The subject of a further assay is MKN-28. Put plainly: Cytotoxicity against human MKN28 cells by MTT assay. Type of assay: functional, cell-based.
Another assay has as its system HL-60. Put plainly: Cytotoxicity against human HL60 cells by MTT assay. The format is functional, cell-based.
Assay [1] can be described thus: Cytotoxicity against human BIU87 cells by MTT assay. The format is functional, cell-based.
The target in assay [2] is T1, DNA topoisomerase 1 (Homo sapiens) (UniProt P11387).
T1 sequence (whole entry): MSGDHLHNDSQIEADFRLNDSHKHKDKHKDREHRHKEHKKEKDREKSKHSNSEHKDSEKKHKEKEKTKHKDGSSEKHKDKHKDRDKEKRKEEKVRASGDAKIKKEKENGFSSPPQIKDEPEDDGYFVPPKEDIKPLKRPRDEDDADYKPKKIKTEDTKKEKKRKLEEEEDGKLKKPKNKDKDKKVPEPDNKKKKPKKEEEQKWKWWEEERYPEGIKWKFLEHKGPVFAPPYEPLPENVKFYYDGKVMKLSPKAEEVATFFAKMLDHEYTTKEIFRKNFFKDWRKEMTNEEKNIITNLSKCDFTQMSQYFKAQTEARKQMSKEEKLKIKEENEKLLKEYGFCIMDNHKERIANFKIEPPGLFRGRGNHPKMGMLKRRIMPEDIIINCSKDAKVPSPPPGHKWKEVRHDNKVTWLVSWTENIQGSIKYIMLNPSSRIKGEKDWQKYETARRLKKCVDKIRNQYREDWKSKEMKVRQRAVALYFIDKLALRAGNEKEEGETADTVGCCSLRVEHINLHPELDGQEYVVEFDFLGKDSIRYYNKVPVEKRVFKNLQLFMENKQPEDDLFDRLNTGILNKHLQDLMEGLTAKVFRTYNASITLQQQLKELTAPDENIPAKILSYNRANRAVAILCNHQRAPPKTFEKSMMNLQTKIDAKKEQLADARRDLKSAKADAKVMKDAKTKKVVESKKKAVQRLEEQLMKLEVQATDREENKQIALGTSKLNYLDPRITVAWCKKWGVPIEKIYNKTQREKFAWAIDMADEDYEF
Put plainly: Inhibition of topoisomerase I relaxation activity assessed as supercoiled pBR322 DNA at 8 ug/ml.

The target of assay [3] is T1, DNA topoisomerase 1 (Homo sapiens). Put plainly: Inhibition of topoisomerase I relaxation activity assessed as supercoiled pBR322 DNA.

Each structure is given as a SMILES string. In brackets after ≈: the same amount, converted by molar mass. Activity calls are given as the source filed them. The rule behind the calls is not given here.

This note sets out measurements from ChEMBL document CHEMBL1155979, “Synthesis of gibberellin derivatives with anti-tumor bioactivities” (Bioorg Med Chem Lett, 2009).

Take `C=C1C(=O)[C@]23C[C@@]1(I)CC[C@H]2[C@@]12C=CC(=O)[C@](C)(C(=O)O1)[C@H]2[C@@H]3C(=O)OC`: the half-maximal inhibitory concentration (IC50) – broadly, the concentration needed to halve the response being measured – is 51.9 µM with HT-29, 87 µM in the assay with HepG2, 53.2 µM with A549 and 6.7 µM in the assay with MKN-28.

Regarding `C=C1[C@H](O)[C@]23C[C@@]1(O)CC[C@H]2[C@@]12C=C[C@H](O)[C@](C)(C(=O)O1)[C@H]2[C@@H]3C(=O)OCc1ccccc1`, the half-inhibitory concentration (IC50) (in the assay with HL-60; in assay [1]) was over 100 mg/L throughout.

Regarding `CC[C@]1(O)C[C@H]2CN(CCc3c([nH]c4ccccc34)[C@@](C(=O)OC)(c3cc4c(cc3OC)N(C=O)[C@H]3[C@@](O)(C(=O)OC)[C@H](OC(C)=O)[C@]5(CC)C=CCN6CC[C@]43[C@@H]65)C2)C1` [VINCRISTINE], the IC50 was determined as 5.3 µM in the assay on HT-29, 3.7 µM with HepG2, 2.5 µM in the assay on A549 and 7.1 µM with MKN-28.

Take `C=C1C[C@]23C[C@@]1(O)CC[C@H]2[C@@]12C=CC(=O)[C@](C)(C(=O)O1)[C@H]2[C@@H]3C(=O)OCc1ccccc1`: the IC50 (with HL-60; in assay [1]) was over 40 mg/L in each case.

On to `C=C1C(=O)[C@]23C[C@@]1(F)CC[C@H]2[C@@]12C=CC(=O)[C@](C)(C(=O)O1)[C@H]2[C@@H]3C(=O)OC`, for which the IC50 stood at 72.7 µM in the assay with HT-29, 40.6 µM in the assay with HepG2, 38.9 µM in the assay on A549 and 4.1 µM in the assay with MKN-28.

Consider `C=C1C[C@]23C[C@@]1(O)CC[C@H]2[C@@]12C=C[C@H](O)[C@](C)(C(=O)O1)[C@H]2[C@@H]3C(=O)O` [GIBBERELLIN GA3], for which the IC50 (with HL-60; in assay [1]) was over 100 mg/L each time.

Take `C=C1C[C@]23C[C@@]1(OC(C)=O)CC[C@H]2[C@@]12C=C[C@H](OC(C)=O)[C@](C)(C(=O)O1)[C@H]2[C@@H]3C(=O)OCc1ccccc1`: the IC50 (in the assay with HL-60; in assay [1]) was over 100 mg/L in each case.

`C=C1[C@H](O)[C@]23C[C@@]1(O)CC[C@H]2[C@@]12C=C[C@H](O)[C@](C)(C(=O)O1)[C@H]2[C@@H]3C(=O)OC`: the IC50 (with HL-60; in assay [1]) was over 100 mg/L throughout.

`C=C1C(=O)[C@]23C[C@@]1(Cl)CC[C@H]2[C@@]12C=CC(=O)[C@](C)(C(=O)O1)[C@H]2[C@@H]3C(=O)OCc1ccccc1`: the concentration for half-maximal inhibition (IC50) in the assay on HL-60 was found to be 2.7 mg/L (≈ 5.78 µM); in the assay on HT-29, 4.5 µM; with HepG2, 17.9 µM; in the assay on A549, 28.8 µM; in the assay on MKN-28 it was 6.8 µM; in assay [1], 0.5 mg/L (≈ 1.07 µM).

In the case of `C=C1[C@H](O)[C@]23C[C@@]1(OC(C)=O)CC[C@H]2[C@@]12C=C[C@H](OC(C)=O)[C@](C)(C(=O)O1)[C@H]2[C@@H]3C(=O)OCc1ccccc1`, the IC50 (in the assay with HL-60; in assay [1]) was over 100 mg/L throughout.

Turning to `C=C1C(=O)[C@]23C[C@@]1(I)CC[C@H]2[C@@]12C=CC(=O)[C@](C)(C(=O)O1)[C@H]2[C@@H]3C(=O)OCc1ccccc1`, the IC50 amounted to 50.2 µM in the assay on HT-29, 69.5 µM in the assay on HepG2, 46 µM in the assay on A549 and 3 µM in the assay with MKN-28.

On to `C=C1C(=O)[C@]23C[C@@]1(F)CC[C@H]2[C@@]12C=CC(=O)[C@](C)(C(=O)O1)[C@H]2[C@@H]3C(=O)OCc1ccccc1`, for which the IC50 was determined as 59.1 µM in the assay on HT-29, 44.1 µM in the assay with HepG2, 64.4 µM in the assay on A549 and 9.8 µM in the assay on MKN-28.

Consider `C=C1C(=O)[C@]23C[C@@]1(OC(C)=O)CC[C@H]2[C@@]12C=C[C@H](OC(C)=O)[C@](C)(C(=O)O1)[C@H]2[C@@H]3C(=O)OCc1ccccc1`, for which the IC50 (in the assay with HL-60; in assay [1]) was over 40 mg/L in each case.

For `C=C1C(=O)[C@]23C[C@@]1(O)CC[C@H]2[C@@]12C=CC(=O)[C@](C)(C(=O)O1)[C@H]2[C@@H]3C(=O)OCc1ccccc1`, the 50% inhibitory concentration (IC50) in the assay with HT-29 was 83.3 µM; in the assay with HepG2, 20.5 µM; in the assay on A549, 23.9 µM; in the assay on MKN-28, 2.5 µM.

Consider `C=C1C(=O)[C@]23C[C@@]1(OCC)CC[C@H]2[C@@]12C=CC(=O)[C@](C)(C(=O)O1)[C@H]2[C@@H]3C(=O)OC`, for which the concentration for half-maximal inhibition (IC50) came to 34.1 µM in the assay with HT-29, 120 µM in the assay with HepG2, 18.2 µM with A549 and 82.7 µM in the assay on MKN-28.

In the case of `C=C1C[C@]23C[C@@]1(O)CC[C@H]2[C@@]12C=C[C@H](O)[C@](C)(C(=O)O1)[C@H]2[C@@H]3C(=O)OCc1ccccc1`, the concentration for half-maximal inhibition (IC50) (in the assay on HL-60; in assay [1]) was over 100 mg/L in each case.

As to `C=C1C[C@]23C[C@@]1(O)CC[C@H]2[C@@]12C=C[C@H](O)[C@](C)(C(=O)O1)[C@H]2[C@@H]3C(=O)OC`, the IC50 (in the assay with HL-60; in assay [1]) was over 100 mg/L in each case.

On to `C=C1C(=O)[C@]23C[C@@]1(OC)CC[C@H]2[C@@]12C=CC(=O)[C@](C)(C(=O)O1)[C@H]2[C@@H]3C(=O)OCc1ccccc1`, for which the IC50 was 48.4 µM with HT-29, 35 µM in the assay on HepG2, 28.2 µM in the assay on A549 and 0.8 µM in the assay on MKN-28.

For `C=C1C(=O)[C@]23C[C@@]1(OCC)CC[C@H]2[C@@]12C=CC(=O)[C@](C)(C(=O)O1)[C@H]2[C@@H]3C(=O)OCc1ccccc1`, the IC50 is 23.3 µM in the assay on HT-29, 29.6 µM with HepG2, 24.2 µM in the assay on A549 and 16.5 µM with MKN-28.

Regarding `C=C1C(=O)[C@]23C[C@@]1(OC)CC[C@H]2[C@@]12C=CC(=O)[C@](C)(C(=O)O1)[C@H]2[C@@H]3C(=O)OC`, the IC50 with HT-29 worked out at 80.2 µM; in the assay with HepG2 it was 43.5 µM; in the assay on A549, 54.5 µM; in the assay with MKN-28, 3.4 µM.

Consider `C=C1C(=O)[C@]23C[C@@]1(Cl)CC[C@H]2[C@@]12C=CC(=O)[C@](C)(C(=O)O1)[C@H]2[C@@H]3C(=O)OC`, for which the concentration for half-maximal inhibition (IC50) with HL-60 amounted to 6.5 mg/L (≈ 16.6 µM); in the assay on HT-29 it was 2.9 µM; in the assay with HepG2, 39.8 µM; with A549, 60.3 µM; with MKN-28, 4.8 µM; in assay [1], 1 mg/L (≈ 2.56 µM). The inhibition result in assay [2] was “Active”. Also, the inhibition entry in assay [3] is “Dose-dependent effect”.

As to `C=C1C(=O)[C@]23C[C@@]1(O)CC[C@H]2[C@@]12C=CC(=O)[C@](C)(C(=O)O1)[C@H]2[C@@H]3C(=O)OC`, the concentration for half-maximal inhibition (IC50) in the assay with HT-29 was found to be 65.7 µM; in the assay with HepG2, 37.2 µM; in the assay with A549, 90.9 µM; with MKN-28, 39.6 µM.
